In ChEMBL document CHEMBL5038656, “5-C-Branched Deoxynojirimycin: Strategy for Designing a 1-Deoxynojirimycin-Based Pharmacological Chaperone with a Nanomolar Affinity for Pompe Disease” (J Med Chem, 2022):

Target: not listed separately
Test: Inhibition of Maltase (unknown origin)
Design: species or system Homo sapiens
Conditions: not given

IC50 [µM]	SMILES
55	OC[C@H]1NC[C@@H](O)[C@@H]1O

Target: not listed separately
Test: Inhibition of Penicillium decumbens Alpha-L-rhamnosidase
Conditions: not given

SMILES	IC50 [µM]
O[C@@H]1[C@@H]2[C@@H](O)[C@H](O)[C@@H](O)CN2C[C@@H]1O	530

Target: not listed separately
Test: Inhibition of Lysosomal alpha-glucosidase in Aspergillus niger
Conditions: not given

IC50 [µM]	SMILES
0.19	OC[C@H]1NC[C@@H](O)[C@H]1O

Target: not listed separately
Test: Inhibition of rat intestinal maltase
Conditions: not given

IC50 [µM]	SMILES
0.74	C[C@]1(CO)NC[C@@H](O)[C@@H]1O

Target: T1, Lysosomal alpha-glucosidase (Homo sapiens, UniProt P10253)
Conditions: dose 10.0 µM
Description: Stabilization of recombinant human GAA using 4-methylumbelliferyl-alpha-D-glucopyranoside as substrate assessed as relative fluorescence intensity by measuring midpoint temperature protein denaturation at 10 uM by thermal shift assay (Rvb = 58.6 degC)

Tm [°C]	SMILES
69.5	C[C@]1(CO)NC[C@H](O)[C@@H](O)[C@@H]1O
70.2	CCCC[C@]1(CO)NC[C@H](O)[C@@H](O)[C@@H]1O

Target: T1, Lysosomal alpha-glucosidase
Test: Inhibition of human GAA using 4-methylumbelliferyl-alpha-D-glucopyranoside as substrate preincubated for 45 min followed by substrate addition and measured after 30 min by fluorescence spectrophotometer analysis
Conditions: not given

SMILES	Ki [µM]
CCCCCCC[C@@]1(CO)NC[C@H](O)[C@@H](O)[C@@H]1O	2.5
CCCCCN1C[C@H](O)[C@@H](O)[C@H](O)[C@H]1CO	0.21
CCCN1C[C@H](O)[C@@H](O)[C@H](O)[C@H]1CO	0.36
CCCCCCC[C@]1(CO)NC[C@H](O)[C@@H](O)[C@@H]1O	0.0047
CC[C@]1(CO)NC[C@H](O)[C@@H](O)[C@@H]1O	6
CCC[C@]1(CO)NC[C@H](O)[C@@H](O)[C@@H]1O	0.059
CCCCN1C[C@H](O)[C@@H](O)[C@H](O)[C@H]1CO	0.2

Results, then the compound that gave them:

Ki [µM]	SMILES
37	C[C@]1(CO)NC[C@H](O)[C@@H](O)[C@@H]1O
0.019	CCCCC[C@]1(CO)NC[C@H](O)[C@@H](O)[C@@H]1O
0.037	CCCC[C@]1(CO)NC[C@H](O)[C@@H](O)[C@@H]1O
0.0061	CCCCCC[C@]1(CO)NC[C@H](O)[C@@H](O)[C@@H]1O
0.095	CCCCCCCN1C[C@H](O)[C@@H](O)[C@H](O)[C@H]1CO
0.13	CCCCCCN1C[C@H](O)[C@@H](O)[C@H](O)[C@H]1CO
0.21	CCN1C[C@H](O)[C@@H](O)[C@H](O)[C@H]1CO

Target: Sucrase-isomaltase, intestinal (Homo sapiens, UniProt P14410)
Sequence (P14410 2-1007 limits assumed): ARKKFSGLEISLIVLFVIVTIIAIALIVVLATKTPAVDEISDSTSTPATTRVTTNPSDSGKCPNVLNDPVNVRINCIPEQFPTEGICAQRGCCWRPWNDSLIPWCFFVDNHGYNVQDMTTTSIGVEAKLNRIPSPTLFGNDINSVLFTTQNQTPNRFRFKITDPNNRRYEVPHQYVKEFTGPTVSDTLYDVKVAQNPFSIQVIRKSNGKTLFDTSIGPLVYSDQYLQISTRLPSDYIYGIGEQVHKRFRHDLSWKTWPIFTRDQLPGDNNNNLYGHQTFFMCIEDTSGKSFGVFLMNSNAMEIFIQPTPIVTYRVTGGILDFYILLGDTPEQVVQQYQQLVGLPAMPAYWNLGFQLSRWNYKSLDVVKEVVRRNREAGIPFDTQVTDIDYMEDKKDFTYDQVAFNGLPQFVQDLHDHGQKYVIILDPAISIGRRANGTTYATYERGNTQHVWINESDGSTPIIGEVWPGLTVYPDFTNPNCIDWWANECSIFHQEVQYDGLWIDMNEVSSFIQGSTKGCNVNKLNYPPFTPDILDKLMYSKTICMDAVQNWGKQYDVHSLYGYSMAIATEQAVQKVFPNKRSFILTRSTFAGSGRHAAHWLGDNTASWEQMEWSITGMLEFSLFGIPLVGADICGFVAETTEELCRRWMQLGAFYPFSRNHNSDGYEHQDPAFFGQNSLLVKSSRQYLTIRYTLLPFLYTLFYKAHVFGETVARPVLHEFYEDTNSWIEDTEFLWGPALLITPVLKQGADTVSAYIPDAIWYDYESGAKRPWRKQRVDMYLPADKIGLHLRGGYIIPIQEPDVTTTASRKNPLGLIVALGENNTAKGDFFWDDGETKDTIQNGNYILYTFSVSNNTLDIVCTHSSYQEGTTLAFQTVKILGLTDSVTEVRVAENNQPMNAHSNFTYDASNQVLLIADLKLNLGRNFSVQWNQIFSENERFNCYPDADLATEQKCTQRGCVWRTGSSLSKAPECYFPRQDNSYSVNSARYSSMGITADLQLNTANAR
Sequence (P14410 1008-1827 limits assumed): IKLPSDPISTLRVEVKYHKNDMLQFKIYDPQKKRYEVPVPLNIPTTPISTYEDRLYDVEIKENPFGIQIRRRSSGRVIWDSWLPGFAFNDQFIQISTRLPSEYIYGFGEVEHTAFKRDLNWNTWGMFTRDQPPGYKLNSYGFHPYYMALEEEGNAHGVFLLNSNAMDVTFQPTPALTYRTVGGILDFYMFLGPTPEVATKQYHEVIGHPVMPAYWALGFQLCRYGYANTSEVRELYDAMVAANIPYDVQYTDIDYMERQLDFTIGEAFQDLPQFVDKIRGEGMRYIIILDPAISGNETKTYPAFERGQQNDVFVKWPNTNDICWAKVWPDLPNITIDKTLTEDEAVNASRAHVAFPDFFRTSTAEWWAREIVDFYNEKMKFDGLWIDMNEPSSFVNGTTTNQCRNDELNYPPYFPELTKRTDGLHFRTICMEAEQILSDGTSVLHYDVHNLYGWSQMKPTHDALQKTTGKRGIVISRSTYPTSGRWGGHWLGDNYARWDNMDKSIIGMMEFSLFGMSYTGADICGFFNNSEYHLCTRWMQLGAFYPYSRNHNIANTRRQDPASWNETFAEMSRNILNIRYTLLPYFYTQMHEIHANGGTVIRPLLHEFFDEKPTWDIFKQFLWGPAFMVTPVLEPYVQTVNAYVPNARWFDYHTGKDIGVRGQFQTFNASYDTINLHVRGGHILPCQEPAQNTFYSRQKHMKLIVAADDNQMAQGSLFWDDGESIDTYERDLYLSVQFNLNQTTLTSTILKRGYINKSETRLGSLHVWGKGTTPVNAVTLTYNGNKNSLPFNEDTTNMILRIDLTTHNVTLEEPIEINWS
Test: Inhibition of Sucrase (unknown origin)
Conditions: not given

SMILES	IC50 [µM]
OC[C@@H]1NC[C@H](O)[C@H]1O	1

Target: not listed separately
Test: Inhibition of Endoplasmic reticulum alpha-glucosidase (unknown origin)
Design: species or system Homo sapiens
Conditions: not given

IC50 [µM]	SMILES
1.4	OC[C@H]1NC[C@H](O)[C@@H](O)[C@@H]1O [DUVOGLUSTAT]

Target: not listed separately
Test: Inhibition of Glycosidase (unknown origin)
Design: species or system Homo sapiens
Conditions: not given

SMILES	IC50 [µM]
C[C@]1(O)CN2C[C@H](O)[C@H](O)[C@@H]2[C@@H](O)[C@@H]1O	0.2
C[C@@]1(O)CN[C@H](CO)[C@@H]1O	12
C[C@@]1(O)[C@H](O)CN[C@@H]1CO	0.8

More lines, now with the values ahead:

IC50 [µM]	SMILES
50	C[C@@H]1NC[C@@H](O)[C@H](O)[C@]1(C)O
1	C[C@]1(CO)NC[C@H](O)[C@@H](O)[C@@H]1O
